The results in this text go back to patent EP4656630A1, “NOVEL COMPOUND AS LYSYL-TRNA SYNTHETASE 1 INHIBITOR, AND USE THEREOF” (Zymedi Co., Ltd., priority 2023, dated 2024).

Data set [1] concerns the target T1, KARS1 and 37LR (Homo sapiens, UniProt Q15046).
T1 construct: KARS1 (1-207aa)
The experiment in a line: Cell-free ELISA of KARS1 and 37LR (laminin receptor) binding. To be noted: 10 µM compound, 1 hour, plate coated with KARS1 (1-207aa), LRF. The procedure: Next, based on the mechanism of action, a cell-free ELISA analysis was conducted to select compounds with high inhibitory activity on the binding of KARS1 and LR (laminin receptor).
A general note: In an ELISA, binding on a coated surface is turned into a signal by an enzyme label.

The nature of data set [2]: Microsomal metabolic stability, rat. In kind it is in vitro ADME. The procedure: (§1) Metabolic stability (MS) evaluation was conducted for the selected compounds by measuring in vitro stability in two species, rat and human, according to the microsomal stability measurement method. As a result, it was identified that MS varied depending on the transformation of parts A, B, and C.

Data set [3] deals with Raw264.7 cells. In words: KARS1-induced trans-migration assay. The data set is classed as cell-based, mouse. The note with it: Mus musculus, RAW264.7; 1 µM compound; read-out: KARS1-induced Raw264.7 cell migration (% inhibition, 1uM). The protocol:
C0001 inhibits the binding of KARS1 and 67LR, thereby blocking the migration of monocytes/macrophages and suppressing inflammation. Accordingly, a trans-migration assay using mouse macrophages (Raw264.7) was conducted to preliminarily screen drugs that inhibit the migration of monocytes/macrophages.
Based on this, when KARS1 protein was directly treated externally instead of LN, the trans-migration of Raw264.7 was induced, and the cell migration inhibitory effect of the KARS1 inhibitor C0001 was confirmed. It was verified that C0001, which specifically binds to KARS1, can inhibit cell migration by binding to extracellular KARS1, in addition to the mechanism of inhibiting cell membrane migration of KARS1 induced by laminin and its binding to 67LR, thereby enabling this analysis to be used as a direct method for evaluating in vitro activity against KARS1.
Next, preliminary candidate substances with high inhibitory activity at 1 µM were treated at concentrations of 0.1~4 µM for analysis.

The subject of data set [4] is Raw 264.7 cells. The experiment in a line: LN (Laminin 421)-induced immune cell migration, Transwell. In kind it is cell-based. The note with it: Mus musculus, RAW264.7; 3 µM compound, LN (Laminin 421 1 µg/ml), 24 hours, % inhibition compared to control group; read-out: Migration inhibitor % (3uM). The procedure: Cell migration was assessed based on the method described in the prior literature (Park, S. G. et al. Human lysyl-tRNA synthetase is secreted to trigger proinflammatory response. Proceedings of the National Academy of Sciences, 2005, 102.18: 6356-6361.). The specific experimental method is as follows. A Transwell (Corning#3421-5µm pore) was coated with gelatin (0.5mg/ml), and then Raw 264.7 cells (1 x 10^5 cells/well) were seeded in the upper chamber. Serum-free medium (Serum Free DMEM, 500 µl) containing LN (Laminin 421 1 µg/ml) was added to the lower chamber. Each compound was treated at a concentration of 3µM in the upper chamber. After 24 hours, the cells were fixed with 70% methanol for 30 minutes and stained with 50% hematoxylin for 30 minutes. Non-migrating cells on the upper side of the membrane were removed with a cotton swab, and the membrane was mounted on a slide. Migrating cells on the lower side of the membrane were observed under a high-power microscope, and the number of cells was measured from the obtained images and expressed as the inhibition rate (% inhibition) compared to the control group.

The nature of data set [5]: Microsomal metabolic stability, human. In kind it is in vitro ADME. The procedure: as §1

T1 sequence (Q15046 1-207): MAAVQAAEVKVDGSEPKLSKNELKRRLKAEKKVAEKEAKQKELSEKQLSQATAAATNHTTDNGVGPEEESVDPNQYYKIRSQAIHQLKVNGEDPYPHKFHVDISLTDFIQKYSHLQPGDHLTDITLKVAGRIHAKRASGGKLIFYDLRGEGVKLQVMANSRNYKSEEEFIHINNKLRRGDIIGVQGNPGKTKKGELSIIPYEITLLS

Turning to `COc1ccc(CCN(Cc2cccc(N3CCC(C(=O)O)C3)c2)c2nc3cccc(F)c3s2)cc1` (centres unmarked) [Compound 17, 1-(3-(((7-fluorobenzo[d]thiazol-2-yl)(4-methoxyphenethyl)amino)-methyl)phenyl)pyrrolidine-3-carboxylic acid], the inhibition at 10 µM in data set [1] was 79%. Also, the “Metabolic stability (% remaining at 30 min) Rat” value in data set [2] is reported as 71%. Also, the inhibition at 1 µM in data set [3] came out at 5.6%. The inhibition at 3 µM in data set [4] stood at 42%. The “Metabolic stability (% remaining at 30 min) Human” value in data set [5] is reported as 58%.
For the compound `COc1ccc(CCN(Cc2ccc(C(=O)N3CCC(C(=O)O)C3)cc2)c2nc3cccc(F)c3s2)cc1` (centres unmarked) [Compound 15, 1-(4-(((7-fluorobenzo[d]thiazol-2-yl)(4-methoxyphenethyl)amino)-methyl)benzoyl)pyrrolidine-3-carboxylic acid], in data set [1], the inhibition at 10 µM amounted to 86.4%. Besides, the inhibition at 1 µM in data set [3] is 54.4%. The inhibition at 3 µM in data set [4] stood at 0%.
As for `COc1ccc(CCN(Cc2ccc3c(c2)CN(CC(=O)O)C3)c2nc3cccc(F)c3s2)cc1` [Compound 32, 2-(5-(((7-fluorobenzo[d]thiazol-2-yl)(4-methoxyphenethyl)amino)-methyl)isoindolin-2-yl)acetic acid], in data set [1], the inhibition at 10 µM is -27.9%. In data set [3], the inhibition at 1 µM stood at 18.1%. Further, the inhibition at 3 µM in data set [4] was found to be 45%.
Regarding `COc1ccc(CCN(Cc2ccc(CCC(=O)O)cc2)c2nc3cccc(F)c3s2)cc1` [Compound 2, 3-(4-(((7-fluorobenzo[d]thiazol-2-yl)(4-methoxyphenethyl)amino)-methyl)phenyl)propanoic acid], in data set [1], the inhibition at 10 µM amounted to 79.4%. The inhibition at 1 µM in data set [3] came to 98.1%. Moreover, in data set [4], the inhibition at 3 µM was determined as 15.7%.
As for `COc1ccc(CCN(Cc2ccc(NC3(C(=O)O)CCC3)cc2)c2nc3cccc(F)c3s2)cc1` [Compound 33, 1-((4-(((7-fluorobenzo[d]thiazol-2-yl)(4-methoxyphenethyl)amino)-methyl)phenyl)amino)cyclobutane-1-carboxylic acid], in data set [1], the inhibition at 10 µM was found to be 41.9%. For the same compound, in data set [3], the inhibition at 1 µM stood at 57.6%. In addition, in data set [4], the inhibition at 3 µM turned out to be 15.7%.
The matching figures for `COc1ccc(CCN(Cc2ccc(C(=O)N3CCC[C@H]3C(=O)O)cc2)c2nc3cccc(F)c3s2)cc1` [Compound 14, (4-(((7-fluorobenzo[d]thiazol-2-yl)(4-methoxyphenethyl)amino)-methyl)benzoyl)-L-proline]: 100%, 73.4% and 32%.
Consider `CNC(=O)C#Cc1ccc(CN(CCc2ccc(OC)cc2)c2nc3cccc(F)c3s2)cc1` [Compound 4, 3-(4-(((7-fluorobenzo[d]thiazol-2-yl)(4-methoxyphenethyl)amino)-methyl)phenyl)-N-methylpropiolamide], for which the inhibition at 10 µM in data set [1] amounted to 13.8%. Besides, in data set [3], the inhibition at 1 µM is 9.8%. Besides, the inhibition at 3 µM in data set [4] stood at 88%.
Take `COc1ccc(CCN(Cc2ccc(C#C[Si](C)(C)C)cc2)c2ncc3ccn(C)c3n2)cc1` [Compound 10, N-(4-methoxyphenethyl)-7-methyl-N-(4-((trimethylsilyl)ethynyl)-benzyl)-7H-pyrrolo[2,3-d]pyrimidin-2-amine]: in data set [1], the inhibition at 10 µM stood at 9.8%. Moreover, the inhibition at 1 µM in data set [3] stood at 11.7%. Also, in data set [4], the inhibition at 3 µM was determined as 0%.
Consider `O=C(O)[C@@H]1CCN(c2cccc(CN(CCc3ccc(OC(F)(F)F)cc3)c3nc4cccc(F)c4s3)c2)C1` [Compound 40, (R)-1-(3-(((7-fluorobenzo[d]thiazol-2-yl)(4-(trifluoromethoxy)-phenethyl)amino)methyl)phenyl)pyrrolidine-3-carboxylic acid], for which the inhibition at 10 µM in data set [1] amounted to 66.7%. Besides, the inhibition at 1 µM in data set [3] was found to be 76.1%. In addition, the inhibition at 3 µM in data set [4] was 37.7%.
The matching figures for `COc1ccc(CCN(Cc2ccc(Br)cc2)c2ncc3ccn(C)c3n2)cc1` [Compound 7, N-(4-bromobenzyl)-N-(4-methoxyphenethyl)-7-methyl-7H-pyrrolo[2,3-d]pyrimidin-2-amine]: 9.5%, 39.1% and 10.9%.
As to `C#Cc1ccc(CN(CCc2ccc(OC)cc2)c2ncc3ccn(C)c3n2)cc1` [Compound 11, N-(4-ethynylbenzyl)-N-(4-methoxyphenethyl)-7-methyl-7H-pyrrolo[2,3-d]pyrimidin-2-amine], the inhibition at 10 µM in data set [1] turned out to be 3%. In addition, the inhibition at 1 µM in data set [3] was determined as 37.8%. The inhibition at 3 µM in data set [4] stood at 12%.
Take `COc1ccc(CCN(Cc2nc3ccc(C(=O)O)cc3n2C)c2nc3cccc(F)c3s2)cc1` [Compound 27, 2-(((7-fluorobenzo[d]thiazol-2-yl)(4-methoxyphenethyl)amino)methyl)-1-methyl-1H-benzo[d]imidazole-6-carboxylic acid]: in data set [1], the inhibition at 10 µM is 14%. Further, the inhibition at 1 µM in data set [3] was found to be 9.1%. In data set [4], the inhibition at 3 µM worked out at 9%.
The matching figures for `COc1ccc(CCN(Cc2nc3ccc(B(O)O)cc3n2C)c2nc3cccc(F)c3s2)cc1` [Compound 21, (2-(((7-fluorobenzo[d]thiazol-2-yl)(4-methoxyphenethyl)amino)-methyl)-1-methyl-1H-benzo[d]imidazol-6-yl)boronic acid]: 8.9%, 26.1% and 36%.
For `COc1ccc(CCN(Cc2cccc(N3CCC[C@H]3C(=O)O)c2)c2nc3cccc(F)c3s2)cc1` [Compound 20, (3-(((7-fluorobenzo[d]thiazol-2-yl)(4-methoxyphenethyl)amino)-methyl)phenyl)-L-proline], in data set [1], the inhibition at 10 µM amounted to 3.4%. The inhibition at 1 µM in data set [3] was 49.1%. Moreover, in data set [4], the inhibition at 3 µM was 18%.
The matching figures for `COc1ccc(CCN(Cc2cccc(N3CC[C@@H](C(=O)O)C3)c2)c2nc3cccc(F)c3s2)cc1` [Compound 23, (R)-1-(3-(((7-fluorobenzo[d]thiazol-2-yl)(4-methoxyphenethyl)amino)-methyl)phenyl)pyrrolidine-3-carboxylic acid]: 71.6%, 35.4% and 59%.
For `COc1ccc(CCN(Cc2cccc(N3CC[C@H](C(=O)O)C3)c2)c2nc3cccc(F)c3s2)cc1` [Compound 22, (S)-1-(3-(((7-fluorobenzo[d]thiazol-2-yl)(4-methoxyphenethyl)amino)-methyl)phenyl)pyrrolidine-3-carboxylic acid], the inhibition at 10 µM in data set [1] was 52%. In data set [3], the inhibition at 1 µM was found to be 43.4%. For the same compound, in data set [4], the inhibition at 3 µM is 19%.
Take `COc1ccc(CCN(Cc2ccc(N3CC[C@@H](C(=O)O)C3)cc2)c2nc3cccc(F)c3s2)cc1` [Compound 24, (R)-1-(4-(((7-fluorobenzo[d]thiazol-2-yl)(4-methoxyphenethyl)-amino)methyl)phenyl)pyrrolidine-3-carboxylic acid]: in data set [1], the inhibition at 10 µM was found to be 65.9%. The inhibition at 1 µM in data set [3] amounted to 96.3%. In data set [4], the inhibition at 3 µM worked out at 68%.
The matching figures for `COc1ccc(CCN(Cc2ccc(C#CC(N)=O)cc2)c2nc3cccc(F)c3s2)cc1` [Compound 5, 3-(4-(((7-fluorobenzo[d]thiazol-2-yl)(4-methoxyphenethyl)amino)-methyl)phenyl)propiolamide]: 0.8%, 95.6% and 77.7%.
With `COc1ccc(CCN(Cc2ccc(C(=O)NCC(=O)O)cc2)c2nc3cccc(F)c3s2)cc1` [Compound 16, (4-(((7-fluorobenzo[d]thiazol-2-yl)(4-methoxyphenethyl)amino)-methyl)benzoyl)glycine], the inhibition at 10 µM in data set [1] worked out at 68.2%. In data set [3], the inhibition at 1 µM came to 86.2%. Besides, the inhibition at 3 µM in data set [4] amounted to 33%.
The matching figures for `COc1ccc(CCN(Cc2ccc(C(=O)N[C@@H](C(=O)O)C(C)C)cc2)c2nc3cccc(F)c3s2)cc1` [Compound 18, (4-(((7-fluorobenzo[d]thiazol-2-yl)(4-methoxyphenethyl)amino)-methyl)benzoyl)-D-valine]: 86.2%, 31% and 9%.
